Here are results for five molecules from patent publication US20210355103A1, “PARG INHIBITORS AND METHOD OF USE THEREOF” (City of Hope, priority 2018, published 2021).

Assay [1] has as its system HCC1937 (BRCA1-mutant breast cancer cells). The assay is described as follows: Colony formation (cell viability) assay in HCC1937 cells. In kind it is cell-based. The conditions noted are these: HCC1937, 1 μM PARG inhibitor, 14-day culture, colonies >50 cells counted. On the procedure:
To examine the efficacy of PG compounds in DNA repair-defective cancer cells, colony formation assays were performed using HCC1937 (BRCA1-mutant breast cancer cells) with or without 1 μM PARG inhibitors (PG002, PG006, PG008, and PG010). COH34 was used as a positive control. HCC1937 (˜1000 cells) were seeded into six-well plates and then treated by various doses of PARG inhibitors. After a 14-day culture, the viable cells were fixed by methanol and stained with crystal violet. The number of colonies (>50 cells for each colony) was calculated. The results were summarized in the histograms (FIG. 7).

Another assay has as its target T1, PARG (Homo sapiens, UniProt Q86W56).
T1 construct: made in house; host or cells: Sf9 insect cells
The assay is described as follows: PAR digestion assay (dot blotting) for PARG inhibition. The class given is biochemical. The conditions noted are these: 0.25 nM PARG incubated with 10 μM PAR for 20 min at room temperature; dot blotting with anti-PAR antibody. As to the method: Compounds (FIG. 4) were synthesized to examine the efficacy of PARG inhibition by dot blotting assay (Example 5). 0.25 nM PARG was incubated with 10 μM PAR for 20 min at room temperature with or without inhibitors. PAR-digestion results were analyzed using dot blotting with anti-PAR antibody.
The array includes compounds in FIG. 4 (PG002 (“002”), PG006 (“006”), PG008 (“008”), PG010 (“010”), and PG021(“021”)), PC (positive control, PAR only), NC (negative control, no inhibitor), and COH34 (“34”, positive control for PARG inhibition). In FIG. 5A, 0.3X means 3-fold dilution.
Recombinant PARG protein from Sf9 cells were incubated with PAR purified from FhCh-treated PARG-knock down HCT116 cells (10 μM, calculated as the ADP-ribose unit) and DMSO (Negative control, NC) or small molecules for 20 minutes at room temperature. Positive control (PC) only contains PAR in PBS. Samples (1 μl) were spotted onto a nitrocellulose membrane. Then, the membrane was backed for 30 minutes at 60° C. and blocked with TBST buffer (0.15 M NaCl, 0.01 M Tris-HCl at pH 7.4, 0.1% Tween 20) supplemented with 5% milk for 30 minutes at room temperature. After washing with TBST, the membrane was incubated with monoclonal PAR antibody (Trevigen, Inc.) overnight at 4° C. Following standard Western blotting method, the signals were visualized by chemiluminescent detection (FIG. 5B).

T1 sequence (Q86W56 whole entry): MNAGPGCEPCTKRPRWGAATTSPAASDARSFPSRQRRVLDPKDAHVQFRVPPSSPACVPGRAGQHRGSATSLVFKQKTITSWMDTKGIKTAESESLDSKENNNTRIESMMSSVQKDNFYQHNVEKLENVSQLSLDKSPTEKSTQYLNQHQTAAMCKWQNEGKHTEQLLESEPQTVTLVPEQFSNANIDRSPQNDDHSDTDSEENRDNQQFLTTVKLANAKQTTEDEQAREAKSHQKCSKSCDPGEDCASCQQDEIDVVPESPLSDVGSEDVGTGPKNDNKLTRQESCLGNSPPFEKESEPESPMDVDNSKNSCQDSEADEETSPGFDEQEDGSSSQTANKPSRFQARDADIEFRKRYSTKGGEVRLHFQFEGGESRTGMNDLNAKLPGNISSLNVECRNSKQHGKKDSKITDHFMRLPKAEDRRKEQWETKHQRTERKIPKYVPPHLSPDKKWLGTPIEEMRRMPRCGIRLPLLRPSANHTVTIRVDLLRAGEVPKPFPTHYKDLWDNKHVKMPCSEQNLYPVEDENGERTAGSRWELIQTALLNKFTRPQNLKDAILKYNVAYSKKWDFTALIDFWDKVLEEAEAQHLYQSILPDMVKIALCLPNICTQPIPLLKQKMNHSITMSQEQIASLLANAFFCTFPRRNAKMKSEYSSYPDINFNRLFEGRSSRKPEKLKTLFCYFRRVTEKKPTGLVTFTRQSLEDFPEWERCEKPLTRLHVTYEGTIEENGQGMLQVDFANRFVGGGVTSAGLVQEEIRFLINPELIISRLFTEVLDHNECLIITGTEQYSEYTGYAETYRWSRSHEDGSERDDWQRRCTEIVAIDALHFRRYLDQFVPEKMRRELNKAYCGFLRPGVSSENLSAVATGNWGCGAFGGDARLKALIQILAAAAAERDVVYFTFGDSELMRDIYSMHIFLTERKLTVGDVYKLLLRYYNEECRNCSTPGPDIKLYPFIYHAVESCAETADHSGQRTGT

Regarding `O=C(N/N=C/c1c(O)ccc2ccccc12)c1ccc(Cl)cn1` [PG002, 5-chloro-N′-[(1E)-(2-hydroxynaphthalen-1-yl)methylidene]pyridine-2-carbohydrazide], in assay [1], the “death of the tumor cells (colony formation)” value was “increased death of the tumor cells”. The “inhibitory activity for PARG” value at PARG is given as “good inhibitory activity”.
On to `O=C(N/N=C/c1nccc2ccccc12)c1ccc(Cl)cc1` [PG006, 4-chloro-N′-[(1E)-(isoquinolin-1-yl)methylidene]benzohydrazide], for which the “death of the tumor cells (colony formation)” value in assay [1] is reported as “increased death of the tumor cells”. Moreover, the “inhibitory activity for PARG” value on PARG is “good inhibitory activity”.
The matching figures for `O=C(N/N=C/c1c(O)cnc2ccccc12)c1ccc(Cl)cc1` [PG008, 4-chloro-N-[(1E)-(3-hydroxyquinolin-4-yl)methylidene]benzohydrazide]: “increased death of the tumor cells” and “good inhibitory activity”.
The matching figures for `O=C(N/N=C/c1c(O)ccc2cccnc12)c1ccc(Cl)cc1` [PG010, 4-chloro-N′-[(1E)-(7-hydroxyquinolin-8-yl)methylidene]benzohydrazide]: “increased death of the tumor cells” and “good inhibitory activity”.
`O=S(=O)(N/N=C/c1c(O)ccc2ccccc12)c1ccc(Cl)cn1` [PG021, 5-chloro-N′-[(1E)-(2-hydroxynaphthalen-1-yl)methylidene]pyridine-2-sulfonohydrazide]: the “inhibitory activity for PARG” value at PARG is “good inhibitory activity”.
